This is an account of results in patent US5334612A, “Pharmaceutical compositions containing as active substance sulphur-containing carboxylic acids and their use in combating retroviruses” (priority 1988, dated 1994).

Data set [1] in a line: Plasma level at normal oral dosage. The conditions noted are these: side effect-free dosage. The data set is classed as in vivo.
The subject of the next data set is HIV. Put plainly: Virological markers overall in HIV-infected patients. The format is in vivo. The procedure: (§1) Determination of the plasma p24 antigen level using a commercial ELISA; p24 is the designation for a structural protein of the HIV virus; ELISA (Enzyme Linked Immuno Sorbent Assay) is a test technique frequently used in virology in order to determine proteins, antigens, etc.
(§2) Virus isolation with cocultivation: patient lymphocytes are cocultivated with donor lymphocytes. The virus produced by these cells (p24) is measured using an ELISA after 21 days (standard method).
(§3) Virus isolation without cocultivation: the production of virus (p24) from 1×10^6 patient lymphocytes is quantitatively measured using an ELISA after 11 days. No donor lymphocytes are added in this standardized method. Virus production may be quoted in pg^1 p24/ml/200,000 cells. (Newly developed method). Cell titration: virus isolation is carried out starting from a decreasing number of patient lymphocytes (e.g. 10^6, 10^5, 10^4).
(§4) Determination of the plasma titer which states the number of infectious viruses in the plasma.
(§5) The following results were recorded in 4 patients in Walter Reed stage 6. Application of α-lipoic acid was, by means of infusion of an α-lipoic acid solution having the following composition: 10 ml of aqueous solution containing 250 mg of α-lipoic acid in the form of the ethylene diamine salt (=323 mg salt) as well as 1 g of 1,2-propylene glycol and 100 mg of benzyl alcohol.

For data set [2] the following is noted: cited from earlier work.
The test system of data set [3] is peripheral blood lymphocytes. Kind of data set: Proliferation rate or lethality of peripheral blood lymphocytes. The format is cell-based. The conditions noted are these: 70 μg/ml.
In data set [4] the test system is HIV from patient lymphocytes. Kind of data set: Virus isolation with cocultivation (standard method) from patient lymphocytes. The data set is classed as in vivo, human patients (HIV). The procedure:
as §2, §5

A further data set has as its system HIV-1. Put plainly: Reduction of infectious viruses (HIV-1) in cell culture supernatant in vitro. The data set is classed as cell-based. The procedure:
For example the compounds of Formula I have a good, growth-inhibiting effect on HIV (type 1 and 2) which may be shown in vitro for example in the following virological-cell biological test processes:
3. Determination of reverse transcriptase in culture supernatant
4. Determination of the p24 antigen in culture supernatant
Thus, for example, a single dose of 0.035 mg/ml of compound I (for example alpha-lipoic acid, racemate) reduces the number of infectious viruses (for example HIV-1) in cell culture supernatant from 100% in the positive control to 0%.
For the in vitro trials the active substance of Formula I is used, for example in benzyl alcohol as solvent.
For in vitro investigations into the replication behavior of retroviruses, in particular HIV, it is for example possible to use the following substrates:
1. Virus-containing RPMI 1640 medium, for example 1X liquid 041-01875 (synthetic culture medium from Gibeo according to Moore, Gerner and Franklin, H.A. (1967), J.A.M.A. 199; 519) with a concentration of 2×10^3 -1×10^4 infectious units (PFU)/ml.
2. The cell lines Jurkat Clone E6-1, Sup T1 and HeLa CT4.

Data set [5] in a line: Acute toxicity in the mouse (LD 50, Miller and Tainter). The note with it: in vivo, oral. As to the method: The acute toxicity of α-lipoic acid in the mouse (expressed in the LD 50 mg/kg; Method after Miller and Tainter: Proc. Soc. Exper. Biol. a. Med. 57 (1944) 261) is, for example, in oral application above 400 mg/kg body weight, that of dihydrolipoic acid above 200 mg/kg body weight mouse.

The test system of data set [6] is HIV from patient lymphocytes. Kind of data set: Virus isolation with cell titration. The format is in vivo, human patients (HIV). The procedure:
as §3, §5

Data set [7] relates to HIV-1 in permanently infected Molt4 cells. Kind of data set: Reverse transcriptase test, tumor cell line (Molt4) permanently infected with HIV-1. The note with it: 70 μg/ml, FIG. 1. The data set is classed as cell-based. The text has this:
(§6) The inhibitory effect is shown in a cell line permanently infected with HIV-1.
(§7) 1. Negative (non infected) cells (for example Molt 4) are removed from the culture bottle with RPMI 1640 culture medium and centrifuged down in an appropriate vessel. As a basic principle, the negative cells may be the cells from any CD4 receptor-positive T-cell line. It is, for example, possible to use the following commercially available cell lines: H9, Hut78, SupT1, Jurkat, Molt4. Molt4 is for example a monoclonal T-cell line of the peripheral blood of a cancer patient. T-cell lines are derived from human tumors, for example from specific forms of leukemia. Cell lines of this type grow permanently as long as they are kept in the appropriate culture medium and CO2 concentration in an incubator at 37° C. These lines may be purchased from the American Type Culture Collection (ATCC).
2. These Molt4 cells are then resuspended (taken up) in highly virus-containing culture medium (RPMI 1640+10% fetal calf serum) placed in a culture flask and incubated (cultivated) for ca. 12 hours in an incubator at 37° C. and 5% CO2. […]
5. […] The infection is for example determined using immunofluorescence. […] Every three days culture medium and α-lipoic acid are replaced and the activity of the virus determined in the reverse transcriptase and plaque test. […]

For data set [8] the test system is unchanged. Kind of data set: Plaque test, tumor cell line (Molt4) permanently infected with HIV-1. The format is cell-based.
Excerpt: as §6, §7
2. These Molt4 cells are then resuspended (taken up) in highly virus-containing culture medium (RPMI 1640+10% fetal calf serum) placed in a culture flask and incubated (cultivated) for ca. 12 hours in an incubator at 37° C. and 5% CO2. This infects part (depending on the concentration of the infectious virus) of the cells.
3. After 12 hours the cells are again separated by centrifugation and resuspended in fresh medium (RPMI 1640, containing no virus) and cultivated for ca. 4 weeks in an incubator.
4. Once every week the medium is completely replaced (separated by centrifugation, resuspended, etc.) and negative, non-infected cells are added.
5. After ca. 4 weeks 80-100% of the cells are infected=permanently infected cell line. The infection is for example determined using immunofluorescence. The cells infected in this manner produce HIV in a titer range of about 10^5 -10^6 infectious units (PFU). The tumor cell line permanently infected in this manner (Molt4) is treated for three weeks with 70 μg of α-lipoic acid/ml. Every three days culture medium and α-lipoic acid are replaced and the activity of the virus determined in the reverse transcriptase and plaque test. […]

The next data set concerns plasma p24 antigen (HIV). Put plainly: Plasma p24 antigen level (ELISA) in HIV-infected patients. The format is in vivo, human patients (HIV). As to the method:
as §1, §5
Walter Reed stages: division of HIV-infected patients according to the degree of their clinical symptoms. In stage 0 no HIV virus can be detected. Stage 6 relates to the final stage of AIDS.
In general terms: ELISA stands for enzyme-linked immunosorbent assay.

In data set [9] the test system is HIV in freshly infected Jurkat cells. Put plainly: Plaque test, freshly infected Jurkat cells. The format is cell-based. The conditions noted are these: 7 days.
Procedure: To compare both compounds, freshly split Jurkat cells were infected with HIV (8×10^3 PFU) and afterwards recombinant alpha interferon (rIF) (70 units/ml) or 35 ng/ml of α-lipoic acid was added thereto using a pipette. The experiment was concluded after 7 days in order to assess in particular the growth of the first virus generation.
Cells are taken up in fresh medium and may now be defined as being freshly infected cells. As distinct from permanently infected cells, far fewer cells are virus carriers, and therefore synchronously treated, i.e. the first and second virus generation is given off into the culture supernatant relatively at the same time on the 3rd and 7th day. These virus generations may be quantified on these days (plaque and reverse transcriptase test) and may be compared. The term "single hit kinetics" is also used in this context.
3. α-lipoic acid is added using a pipette.
Cells are cultured for 7 days in an incubator.
On day 4 and day 7 samples are withdrawn from the culture for plaque and RT assay.
The test system of a further data set is infectious HIV in plasma. Put plainly: Plasma titer (number of infectious viruses in the plasma). The format is in vivo, human patients (HIV). As to the method:
as §4, §5

In data set [10] the test system is HIV p24 production from patient lymphocytes. Kind of data set: Virus isolation without cocultivation, p24 production of patient lymphocytes. The data set is classed as in vivo, human patients (HIV). As to the method:
as §3, §5

The conditions of data set [11]: animal experiments, rats and mice; cited from earlier work.
Setting [12] is: patient 2, towards the end and after conclusion of therapy.

One may read the LD50 as the dose at which mortality reaches 50%. For the compound `O=C(O)CCCCC1CCSS1` (racemic) [α-lipoic acid], the “factor by which 70 μg/ml is above the plasma levels” value in data set [1] is listed as 10-20 times. For the same compound, the virus markers entry with HIV (setting [12]) is given as “drastic fall in all virus markers”. In addition, the “improvement in virological markers” value with HIV (patients with clearly measurable virological markers) is “marked improvement in these parameters”. For the same compound, the pharmacological properties result in data set [2] (racemate) was “anti-inflammatory, antinociceptive (analgesic) and cytoprotective properties”. Also, the “effect in fungus poisoning / coenzyme and growth factor roles” value in data set [2] (α-lipoic acid racemate) was “acts as co-enzyme in many enzymatic reactions, constitutes a growth factor for certain bacteria and protozoas and is used in death-head fungus poisoning”. For the same compound, the “proliferation rate or lethality of peripheral blood lymphocytes” value in data set [3] is listed as “not substantially affected”. Also, in data set [4] (cases 2 and 3, summary), the “virus isolation from patient lymphocytes” value is given as “totally negative”. For the same compound, the “virus isolation (standard method)” value in [4] (patient 1, throughout the entire therapy period) was “positive”. The virus isolation entry in data set [4] (setting [12]) is listed as “repeatedly negative”. In addition, the minimal effective concentration in the data set with HIV-1 (Human immunodeficiency virus 1, same test procedure, read-out: low dose at which a virus-inhibiting effect can be demonstrated) came to 1 µg/mL. Besides, the activity at 35 µg/mL in the data set on HIV-1 (Human immunodeficiency virus 1, single dose of 0.035 mg/ml, read-out: number of infectious viruses in cell culture supernatant (positive control 100%)) is 0%. Further, in data set [5], the LD50 was more than 400 mg/kg. In addition, the “cell titer, number of cells from which virus could be cultivated” value in data set [6] (patient 2, during treatment, before treatment 10^3 cells) is recorded as 10^5 cells. Moreover, the “cell titer, fall” value in data set [6] (patient 2, during treatment, before treatment 1000) was “fell by two orders of magnitude”. Besides, the “results after conclusion of therapy” value in [6] (patient 4, after conclusion of therapy) is recorded as “deteriorated once again”. Moreover, in [6] (patient 4, end of therapy (in the current range), before therapy virus clearly detected in 2×10^6 cells), the virus detection result was “hardly any viruses could be detected”. Also, the “time from which number of virus units produced falls” value in [7] is not below 6 days. Further, the inhibition at 70 µg/mL in data set [7] (Human immunodeficiency virus 1, MOLT-4, 504 h, after three weeks, read-out: reduction of number of virus units produced) is 90%; in [8] (Human immunodeficiency virus 1, MOLT-4, 72 h, read-out: reduction of infectious virus units), approximately 100%. For the same compound, the “number of infectious virus units” value in [8] (after 3 days, 70 μg/ml, FIG. 1) is “about 0”. Further, the development of tolerance entry in data set [8] (three weeks, 70 μg/ml) was “no sign or evidence of the development of tolerance after three weeks”. The “plasma p24 antigen level, fraction of initial value” in the data set with plasma p24 antigen (HIV) (cases 1 and 2, ca. 14 days, summary) is listed as 1/10. Further, the “plasma p24 antigen level” value in the data set with plasma p24 antigen (HIV) (patient 1, infusion, 14 days after commencement of therapy, before therapy 0.350 ng/ml) is 0.05 ng/mL; in the data set with plasma p24 antigen (HIV) (patient 1, infusion, day 29, before therapy 0.350 ng/ml), 0.025 ng/mL; with plasma p24 antigen (HIV) (patient 1, infusion, until end of therapy (58 days), before therapy 0.350 ng/ml) it was 0.25 ng/mL; with plasma p24 antigen (HIV) (patient 3) it was “always negative”; with plasma p24 antigen (HIV) (patient 4, infusion, up to the 18th day of therapy, before/at beginning of therapy 0.070 ng/ml), 0.005 ng/mL. Moreover, the “plasma p24 antigen level, initial fall” value with plasma p24 antigen (HIV) (patient 2, infusion, prior to treatment 0.4 ng/ml) is “barely the 10-fold value”. For the same compound, the “plasma p24 antigen level, change after end of therapy” value in the data set on plasma p24 antigen (HIV) (patient 4, after end of therapy) is “again rose to the initial values”. The “inhibition of viral replication” value in data set [9] (infected, not pre-treated Jurkat cells, α-lipoic acid 35 ng/ml (so in the source), rIF 70 units/ml, FIG. 2 and 3) was “comparable inhibition”. Moreover, the “inhibition in the plaque test” value in data set [9] (α-lipoic acid 35 ng/ml (so in the source) vs rIF 70 units/ml, FIG. 3) was “clearer”. In the data set on infectious HIV in plasma (cases 2 and 4, in the course of therapy, summary), this compound gave a positive plasma titers of 0. In addition, the plasma titrations result in the data set with infectious HIV in plasma (patient 3) is reported as “always negative”. The compound further came in with a plasma titer in the data set with infectious HIV in plasma (patient 4, during therapy, before therapy 10) of 0. Moreover, the “virus production in virus isolations from patient lymphocytes” value in data set [10] (cases 2, 3 and 4, summary) is reported as “markedly lower virus production”. The “production of p24 antigen, change after end of therapy” value in data set [10] (patient 3, after the end of therapy) was “rose again slowly”. Besides, the “production of p24 antigen” value in data set [10] (patient 3, by day 28, before therapy about 10) is reported as 0 pg/ml 200,000 cells. For the same compound, the “production of p24 antigen, change” value in data set [10] (patient 3, day 5 of therapy, before therapy about 10 pg/ml 200,000 cells) is reported as “doubled”. For the same compound, the “p24 production, change after end of therapy” value in [10] (patient 4, after end of therapy, also treated with AZT) is “did not rise significantly”. The “p24 production/ml/200,000 cells, fall” value in data set [10] (patient 4, up to the end of therapy, before therapy 8 pg/ml, also being treated with AZT at this time) amounted to 75%.

Regarding `O=C(O)CCCCC(S)CCS` (stereo not drawn) [dihydrolipoic acid, 6,8-dimercapto-octanoic acid], in data set [5], the LD50 was more than 200 mg/kg. In addition, the “inactivation of snake venom” value in data set [11] is “inactivates snake venom”.
